Measured values from US20070128217A1 (priority 2003, published 2007).

Key:
[1] = tested on: control sera (pooled serum of ten healthy LUMC hospital workers; commercial negative donor pooled serum from the Dutch bloodbank); format: binding, human; design: Binding of Control serum LUMC to linear peptides / Binding of Control serum Blood-bank to linear peptides / Binding of Control serum LUMC to looped peptides / Binding of Control Serum Blood-Bank to Looped peptides / Binding of Control serum LUMC to linear peptides of the protein M of SARS-CoV Urbani / Binding of Control serum Blood-bank to linear peptides of the protein M of SARS-CoV Urbani / Binding of Control serum LUMC to looped peptides of the protein M of SARS-CoV Urbani / Binding of Control Serum Blood-Bank to Looped peptides of the protein M of SARS-CoV Urbani: unit not given here
[2] = tested on: rabbit serum obtained by immunizing a rabbit with the SARS-CoV strain Frankfurt 1; format: binding; design: Binding of a rabbit serum to linear peptides / Binding of a rabbit serum to looped peptides / Rabbit serum linear peptides / Rabbit serum looped peptides / Binding of a rabbit serum to linear peptides of protein N of SARS-CoV Urbani (Rabbit serum linear peptides) / Binding of a rabbit serum to looped/cyclic peptides of protein N of SARS-CoV Urbani (Rabbit serum looped peptides): unit not given here
[3] = tested on: recombinant human anti-SARS-CoV antibody 03-018; format: binding; design: Binding of antibody 03-018 to linear peptides of the N protein of SARS-CoV Urbani / Binding of antibody 03-018 to looped/cyclic peptides of the N protein of SARS-CoV Urbani: unit not given here
[4] = tested on: antibodies in sera from SARS patients (sera 1a, 1b, 2, 6, 37, 62, London, SARS-yellow, SARS-green); format: binding, human; design: Binding of serum 6 to linear peptides of protein X1 of SARS-CoV Urbani / Binding of serum 37 to linear peptides of protein X1 of SARS-CoV Urbani / Binding of serum 6 to looped/cyclic peptide (PEPSCAN-ELISA) / Binding of serum 37 to looped/cyclic peptide (PEPSCAN-ELISA) / Binding of serum 37 to looped/cyclic peptides of protein X1 of SARS-CoV Urbani / Binding of serum 6 to linear peptides of protein X2 / Binding of serum 37 to linear peptides of protein X2 / Binding of serum 37 to looped/cyclic peptides of protein X2 of SARS-CoV Urbani / Binding of serum 6 to linear peptides of protein M of SARS-CoV Urbani / Binding of serum 37 to linear peptides of protein M of SARS-CoV Urbani / Binding of serum 6 to looped/cyclic peptides of protein M of SARS-CoV Urbani / Binding of serum 37 to looped/cyclic peptides of protein M of SARS-CoV Urbani / Binding of serum 6 to linear peptides of protein X3 of SARS-CoV Urbani / Binding of serum 37 to linear peptides of protein X3 of SARS-CoV Urbani / Binding of serum 37 to looped/cyclic peptides of protein X3 of SARS-CoV Urbani / Binding of serum 6 to linear peptides of protein X4 of SARS-CoV Urbani / Binding of serum 37 to linear peptides of protein X4 of SARS-CoV Urbani / Binding of serum 37 to looped/cyclic peptides of protein X4 of SARS-CoV Urbani / Binding of serum 6 to linear peptides of protein X5 of SARS-CoV Urbani / Binding of serum 37 to linear peptides of protein X5 of SARS-CoV Urbani / Binding of serum 37 to looped/cyclic peptides of protein X5 of SARS-CoV Urbani / Binding of serum 6 to linear peptides of protein N of SARS-CoV Urbani / Binding of serum 37 to linear peptides of protein N of SARS-CoV Urbani / Binding of serum 6 to linear peptide (PEPSCAN-ELISA) / Binding of serum 1a to looped/cyclic peptides of protein N of SARS-CoV Urbani / Binding of serum 1b to looped/cyclic peptides of protein N of SARS-CoV Urbani / Binding of serum 2 to looped/cyclic peptides of protein N of SARS-CoV Urbani / Binding of serum 6 to looped/cyclic peptides of protein N of SARS-CoV Urbani / Binding of serum 37 to looped/cyclic peptides of protein N of SARS-CoV Urbani / Binding of serum 62 to looped/cyclic peptides of protein N of SARS-CoV Urbani / Binding of serum London to looped/cyclic peptides of protein N of SARS-CoV Urbani / Binding of serum SARS-green to looped/cyclic peptides of protein N of SARS-CoV Urbani: unit not given here

Sequence	Binding of Control Serum Blood-Bank to Looped peptides [1]	Binding of Control serum Blood-bank to linear peptides [1]	Binding of Control serum LUMC to linear peptides [1]	Binding of Control serum LUMC to looped peptides [1]	Binding of a rabbit serum to linear peptides of protein N of SARS-CoV Urbani (Rabbit serum linear peptides) [2]	Binding of a rabbit serum to looped/cyclic peptides of protein N of SARS-CoV Urbani (Rabbit serum looped peptides) [2]	Binding of antibody 03-018 to linear peptides of the N protein of SARS-CoV Urbani [3]	Binding of antibody 03-018 to looped/cyclic peptides of the N protein of SARS-CoV Urbani [3]	Recognition of the peptide by the rabbit serum [2]	Binding of serum 1a to linear peptide (PEPSCAN-ELISA) [4]	Binding of serum 1a to looped/cyclic peptides of protein N of SARS-CoV Urbani [4]	Binding of serum 1b to linear peptide (PEPSCAN-ELISA) [4]	Binding of serum 1b to looped/cyclic peptides of protein N of SARS-CoV Urbani [4]	Binding of serum 2 to linear peptide (PEPSCAN-ELISA) [4]	Binding of serum 2 to looped/cyclic peptides of protein N of SARS-CoV Urbani [4]	Binding of serum 6 to linear peptide (PEPSCAN-ELISA) [4]	Binding of serum 6 to looped/cyclic peptides of protein N of SARS-CoV Urbani [4]	Binding of serum 37 to linear peptide (PEPSCAN-ELISA) [4]	Binding of serum 37 to looped/cyclic peptides of protein N of SARS-CoV Urbani [4]	Binding of serum 62 to linear peptide (PEPSCAN-ELISA) [4]	other results
ASGGGETALALLLLD	1.3	0.8	0.9	1.3	0.1	0.4	0.1	0.2	–	–	–	–	–	–	–	–	–	–	–	–	–
GTTLPKGFYAEGSRG	0.5	0.6	0.6	0.6	0.2	0.3	0.1	0.2	–	–	–	–	–	–	–	–	–	–	–	–	–
KLDDKDPQFKDNVIL	–	–	–	–	0.1	0.2	0.1	0.2	–	–	–	–	–	–	–	–	–	–	–	–	Control Serum Blood-Bank Looped peptides [1]: 0.7; Control serum Blood-bank linear peptides [1]: 0.8; Control serum LUMC linear peptides [1]: 0.7; Control serum LUMC looped peptides [1]: 0.8
KPRQKRTATKQYNVT	0.4	0.8	0.7	0.4	0.3	0.0	0.1	0.2	–	–	–	–	–	–	–	–	–	–	–	–	–
KRTATKQYNVTQAFG	0.6	0.7	0.8	0.6	–	–	0.1	0.2	recognized	–	–	–	–	–	–	–	–	–	–	–	–
NSTPGSSRGNSPARM	–	–	–	–	–	–	0.2	0.3	recognized	0.7	0.8	0.5	0.7	0.4	0.6	0.6	0.4	1.2	0.6	1.2	Binding of serum 62 to looped/cyclic peptides of protein N of SARS-CoV Urbani [4]: 0.6; Binding of serum London to linear peptide (PEPSCAN-ELISA) [4]: 1.6; Binding of serum London to looped/cyclic peptides of protein N of SARS-CoV Urbani [4]: 0.5; Binding of serum SARS-green to linear peptide (PEPSCAN-ELISA) [4]: 1.8; Binding of serum SARS-green to looped/cyclic peptides of protein N of SARS-CoV Urbani [4]: 0.4; Binding of serum SARS-yellow to linear peptide (PEPSCAN-ELISA) [4]: 1.5; Binding of serum SARS-yellow to looped/cyclic peptides of protein N of SARS-CoV Urbani [4]: 0.4
PGSSRGNSPARMASG	–	–	–	–	–	–	0.1	0.3	recognized	0.3	0.4	0.2	0.2	0.3	0.5	0.2	0.4	0.6	0.6	0.6	Binding of serum 62 to looped/cyclic peptides of protein N of SARS-CoV Urbani [4]: 0.6; Binding of serum London to linear peptide (PEPSCAN-ELISA) [4]: 0.5; Binding of serum London to looped/cyclic peptides of protein N of SARS-CoV Urbani [4]: 0.5; Binding of serum SARS-green to linear peptide (PEPSCAN-ELISA) [4]: 0.5; Binding of serum SARS-green to looped/cyclic peptides of protein N of SARS-CoV Urbani [4]: 0.5; Binding of serum SARS-yellow to linear peptide (PEPSCAN-ELISA) [4]: 0.7; Binding of serum SARS-yellow to looped/cyclic peptides of protein N of SARS-CoV Urbani [4]: 0.4
TPGSSRGNSPARMAS	–	–	–	–	–	–	0.1	0.3	recognized	0.3	0.4	0.2	0.2	0.3	0.5	0.2	0.4	0.8	0.6	0.7	Binding of serum 62 to looped/cyclic peptides of protein N of SARS-CoV Urbani [4]: 0.6; Binding of serum London to linear peptide (PEPSCAN-ELISA) [4]: 0.5; Binding of serum London to looped/cyclic peptides of protein N of SARS-CoV Urbani [4]: 0.5; Binding of serum SARS-green to linear peptide (PEPSCAN-ELISA) [4]: 0.6; Binding of serum SARS-green to looped/cyclic peptides of protein N of SARS-CoV Urbani [4]: 0.4; Binding of serum SARS-yellow to linear peptide (PEPSCAN-ELISA) [4]: 0.8; Binding of serum SARS-yellow to looped/cyclic peptides of protein N of SARS-CoV Urbani [4]: 0.5
